Laboratory results taken from patent publication US5292737A, “N,N'-bis(sulfonamido)-2-amino-4-iminonaphthalen-1-ones and N,N'-bis(amido)-2-amino-4-iminonaphthalen-1-ones” (Sphinx Pharmaceuticals Corporation, priority 1992, dated 1994).
Where two headings read alike, the source gives them in different places.

Experiments:
[1] = molecular target: cAMP dependent protein kinase (PKA); assay: cAMP Dependent Protein Kinase (PKA) Assay; type: biochemical; conditions: for IC50: catalytic subunit of PKA; for effect on PKA activity: result in words
Procedure: Compounds found to be inhibitors of protein kinase C were tested for inhibitory activity against cAMP dependent protein kinase (PKA). This enzyme, like protein kinase C, plays an important role in cell-cell communication and is activated by a second messenger, cAMP. Secondary screening against PKA is useful for ascertaining the selectivity of the compounds of the invention.
The catalytic subunit of PKA (Sigma Chemical Company, St. Louis, Mo.) was mixed with buffer before addition of the inhibitor in dimethylsulfoxide (DMSO). Potential inhibitor compounds were added to the assay in dimethylsulfoxide at two concentrations to give final inhibitor concentrations of 30 and 150 μM, respectively. The assay was started by the addition of ^32 P-ATP and the reaction was allowed to proceed for 10 min before stopping with 25% trichloroacetic acid (TCA) and 1.0 mg/ml bovine serum albumin (BSA). Phosphorylated protein was then isolated by filtration and the radioactivity was counted by a beta scintillation counter.

human neutrophils = assay: Neutrophil Superoxide Anion (O2) Release Assay, PMA-stimulated; type: cell-based; conditions: PMA-stimulated human neutrophils, read-out: Neutrophil Superoxide Release IC50
Text: Phorbol-12,13-myristate acetate (PMA) stimulates O2 production in human neutrophils which in turn reduces cytochrome C. Reducing cytochrome C increases absorbance and the change in optical density (OD) is proportional to the amount of O2 produced by PMA stimulation. Inhibition is expressed as an IC50 value and is the amount of test compound that will inhibit fifty percent of the PMA-stimulated respiratory outburst, i.e. O2^31 production (Lherer et al. (1981) J. Clinical lnvest. 68:1314; Roberts et al. (1982) J. Immunological Methods 49:193).
Human donor blood in 0.38% Sodium Citrate was centrifuged for 10 minutes at 160 ×g at room temperature. Platelet-rich plasma was removed leaving the buffy coat and the red cell-enriched fraction. Saline with 0.38% Sodium Citrate was added to this fraction up to the original blood volume. The enriched blood sample was diluted 1:1 (v:v) with 3% dextran T500 (Pharmacia) in normal saline and placed in a 60 cc syringe, inverted over a beaker and allowed to settle 30 minutes at room temperature.
Leukocyte-enriched plasma was removed from the syringe, placed into 50 ml polypropylene conical centrifuge tubes and underlaid with 15-20 ml Lymphocyte Separation Medium (LSM Organon Technica). The tubes were centrifuged for 40 minutes at 500×g at room temperature. The plasma, buffy coat and LSM were aspirated off the pellets which contained red blood cells and neutrophils.
The pellets were vortexed and 10 ml ice-cold 0.2% NaCl was added to lyse the red blood cells while vortexing again for 10 seconds. Ice-cold 1.6% NaCl was added while vortexing for 10 seconds. The cells were combined from multiple tubes, centrifuged 10 min at 400×g at 4° C. This red cell lysis was repeated and the resulting neutrophil pellet was washed once in Reaction HBSS (GIBCO, HBSS with Ca^++ and Mg^++,.238% HEPES, 0.1% dextrose, 0.1% RIA grade bovine serum albumin, PH 7.2). The cells were resuspended in 1/5 the original blood volume with Reaction HBSS, counted and adjusted to 4.0×10^6 cells/ml at 4° C.
Duplicate samples of neutrophils were tested in 12×75 mm polypropylene tubes containing 0.25 ml of the neutrophil suspension. Cytochrome C mix (0.25 ml, 6.0 mg/ml cytochrome C type IV (Sigma) plus 1200 U/ml bovine liver catalase (Sigma) in Reaction HBSS described above) was added. PMA was added at 2×the final concentration in 0.5 ml of Reaction HBSS. PMA final test concentration were 0.0, 0.3, 9.0, 27.0, and 81.0 ng/ml. The tubes were vortexed and incubated for 10 minutes at 37° C. with shaking. After chilling for 5 minutes at 4° C. and centrifuging for 10 minutes at 4° C., 550×g, 0.5 ml of supernatant was removed from each tube. Normal saline (0.5 ml) was added to each 0.5 ml sample of supernatant and the absorbance of each sample was read at 550 nm on a spectrophotometer (Shimadzu). The PMA concentration which gives nearly maximal stimulation of superoxide release was determined.
The test samples of neutrophils were prepared as in the PMA dose response through addition of cytochrome C mix. Then 0.4 ml of Reaction HBSS as a control or test agent at 2.5×final test concentration was added and the tubes were vortexed and incubated for 30 minutes at 37° C. with shaking. PMA (0.1 ml) was added at a 10× concentration of the final concentration determined above. The samples were incubated for 10 minutes at 37° C. with shaking, chilled for 5 minutes at 4° C., and then centrifuged for 5 minutes at 550×g at 4° C. The supernatant (0.5 ml) was diluted with 0.5 ml normal saline as above and the absorbance was then determined at 550 nm. The percent change was calculated as follows: [formula] D-sphingosine (Sigma) used as reference standard.
Human neutrophils were first isolated according to Lherer et al. ((1981) J. Clinical Invest. 68:1314) and then tested for stimulation of superoxide anion release with phorbol--12,13-myristate acetate (PMA) in a dose-dependent manner. […]

PKC isoenzyme α = molecular target: T1, PKC isoenzyme α (Homo sapiens, UniProt P17252); assay: Protein kinase C inhibition assay, PKC isoenzyme α; type: biochemical
T1 construct: made in house; host or cells: baculovirus-insect cell expression system
Procedure: A protein kinase C (PKC) assay is designed to duplicate the in vivo conditions required for protein kinase C function. Therefore, pH, salt and cofactor concentrations are similar to physiologic levels. Either lysine rich histone H1 (H1) or Myelin basic protein (Mbp) are used in the assay as the phosphorylation acceptor-protein because they are readily available and serve as good substrates for protein kinase C. Enzyme was prepared from baculovirus-insect cell expression systems.
In the screening assay, phosphatidylserine (PS) and DAG were co-sonicated to form unilamellar and multilamellar vesicles. The concentration of lipids in the assay were suboptimal to maximize the detection potential of the assay for inhibitors or activators. Potential effector compounds were added to the assay in dimethylsulfoxide at four concentrations to give final inhibitor concentrations of 1, 10, 50, and 150 μM, respectively.
The assay was started with the addition of enzyme and stopped after 10 min by the addition of 25% trichloroacetic acid (TCA) and 1.0 mg/ml bovine serum albumin (BSA). The radioactive histone product was retained and washed on glass fiber filters that allow the unreacted P-ATP to pass through. The amount of phosphorylation was determined by measuring radioactivity with a scintillation counter. Controls were included in every assay to measure background activity in the absence of enzyme, activity in the absence of lipids, and the maximum enzyme activity with saturating levels of the activator lipids.
Results of the protein kinase C assay are shown in Table 4 in columns labeled α, βII, γ, δ, ε, and .zeta. which represent various PKC isoenzymes. Results are show as IC50, which is the concentration of test compound needed to inhibit 50% of the protein kinase C activity in controls.

IC50 [1] | IC50 (human neutrophils) | IC50 (PKC isoenzyme α; read-out: IC50 PKC α) | effect on PKA activity [1] | IC50 (human neutrophils; Homo sapiens, Neutrophil) | SMILES | IC50 (PKC isoenzyme α; IC50 PKC α)
47 µM | 1.34 µM | 61 µM | – | – | COc1cc(NS(=O)(=O)c2ccc(N=C3C=C(Nc4ccc(S(=O)(=O)Nc5cc(OC)nc(OC)n5)cc4)C(=O)c4ccccc43)cc2)nc(OC)n1 [Compound 6g] | –
46 µM | 2.11 µM | 24 µM | – | – | Cc1ccnc(NS(=O)(=O)c2ccc(N=C3C=C(Nc4ccc(S(=O)(=O)Nc5nccc(C)n5)cc4)C(=O)c4ccccc43)cc2)n1 [Compound 6f] | –
> 150 µM | – | 37 µM | did not effect on PKA activity | 5.85 µM | Cc1cc(NS(=O)(=O)c2ccc(N=C3C=C(Nc4ccc(S(=O)(=O)Nc5cc(C)nc(C)n5)cc4)C(=O)c4ccccc43)cc2)nc(C)n1 [Compound 3d] | –
62 µM | – | 102 µM | – | 0.06 µM | COc1cc(NS(=O)(=O)c2ccc(N=C3C=C(Nc4ccc(S(=O)(=O)Nc5cc(OC)cc(OC)c5)cc4)C(=O)c4ccccc43)cc2)cc(OC)c1 [Compound 3af] | –
145 µM | 1.39 µM | 9 µM | – | – | O=C1C(Nc2ccc(S(=O)(=O)Nc3cnc4ccccc4n3)cc2)=CC(=Nc2ccc(S(=O)(=O)Nc3cnc4ccccc4n3)cc2)c2ccccc21 [Compound 6m] | –
> 150 µM | 0.1 µM | 134 µM | did not effect on PKA activity | – | O=C1C(Nc2ccc(S(=O)(=O)NCc3ccccn3)cc2)=CC(=Nc2ccc(S(=O)(=O)NCc3ccccn3)cc2)c2ccccc21 [Compound 6n] | –
48 µM | 1.88 µM | 7 µM | – | – | Cc1cc(C)nc(NS(=O)(=O)c2ccc(N=C3C=C(Nc4ccc(S(=O)(=O)Nc5nc(C)cc(C)n5)cc4)C(=O)c4ccccc43)cc2)n1 [Compound 6c] | –
> 150 µM | – | 56 µM | did not effect on PKA activity | 4.02 µM | Cc1cc(C)nc(NC(=O)c2ccc(N=C3C=C(Nc4ccc(C(=O)Nc5nc(C)cc(C)n5)cc4)C(=O)c4ccccc43)cc2)n1 [Compound 3ai] | –
48 µM | – | 28 µM | – | 2.51 µM | Cc1ccnc(NS(=O)(=O)c2ccc(N=C3C=C(Nc4ccc(S(=O)(=O)Nc5nccc(C)n5)cc4)C(=O)c4ccccc43)cc2)n1 [Compound 3f] | –
> 150 µM | 0.77 µM | 17 µM | did not effect on PKA activity | – | Cc1cc(C)nc(NS(=O)(=O)c2ccc(N=C3C=C(Nc4ccc(S(=O)(=O)Nc5nc(C)cc(C)n5)cc4)C(=O)c4ccccc43)cc2)n1 [Compound 3c] | –
– | – | 136 µM | – | 8.97 µM | Cc1cc(C)nc(NC(=O)c2ccc(N=C3C=C(Nc4ccc(C(=O)Nc5cc(C)cc(C)n5)cc4)C(=O)c4ccccc43)cc2)c1 [Compound 3ah] | –
> 150 µM | – | 31 µM | did not effect on PKA activity | 0.04 µM | Cc1cc(C)nc(NS(=O)(=O)c2cccc(N=C3C=C(Nc4cccc(S(=O)(=O)Nc5cc(C)cc(C)n5)c4)C(=O)c4ccccc43)c2)c1 [Compound 3ae] | –
– | 0.07 µM | 113 µM | – | – | COc1cc(NS(=O)(=O)c2ccc(N=C3C=C(Nc4ccc(S(=O)(=O)Nc5cc(OC)cc(OC)c5)cc4)C(=O)c4ccccc43)cc2)cc(OC)c1 [Compound 6af] | –
> 150 µM | 0.22 µM | 75 µM | did not effect on PKA activity | – | O=C1C(Nc2ccc(S(=O)(=O)NCc3ccccn3)cc2)=CC(=Nc2ccc(S(=O)(=O)NCc3ccccn3)cc2)c2ccccc21 [Compound 3n] | –
89 µM | 5.23 µM | 44 µM | – | – | O=C1C(Nc2ccc(S(=O)(=O)Nc3ccc(Cl)nn3)cc2)=CC(=Nc2ccc(S(=O)(=O)Nc3ccc(Cl)nn3)cc2)c2ccccc21 [Compound 6l] | –
> 150 µM | – | 30 µM | did not effect on PKA activity | 7.6 µM | Cc1noc(NS(=O)(=O)c2ccc(N=C3C=C(Nc4ccc(S(=O)(=O)Nc5onc(C)c5C)cc4)C(=O)c4ccccc43)cc2)c1C [Compound 3b] | –
> 150 µM | – | 23 µM | did not effect on PKA activity | 0.1 µM | O=C1C(Nc2ccc(S(=O)(=O)Nc3ccccn3)cc2)=CC(=Nc2ccc(S(=O)(=O)Nc3ccccn3)cc2)c2ccccc21 [Compound 3i] | –
> 150 µM | 8.7 µM | 105 µM | did not effect on PKA activity | – | COc1cnc(NS(=O)(=O)c2ccc(N=C3C=C(Nc4ccc(S(=O)(=O)Nc5ncc(OC)cn5)cc4)C(=O)c4ccccc43)cc2)nc1 [Compound 3h] | –
157 µM | 8 µM | – | – | – | Cc1cc(NS(=O)(=O)c2ccc(N=C3C=C(Nc4ccc(S(=O)(=O)Nc5cc(C)on5)cc4)C(=O)c4ccccc43)cc2)no1 [Compound 6a] | –
82 µM | – | 8 µM | – | 1.31 µM | O=C1C(Nc2ccc(S(=O)(=O)Nc3cnc4ccccc4n3)cc2)=CC(=Nc2ccc(S(=O)(=O)Nc3cnc4ccccc4n3)cc2)c2ccccc21 [Compound 3m] | –
> 150 µM | 6.47 µM | 41 µM | did not effect on PKA activity | – | Cc1cc(NS(=O)(=O)c2ccc(N=C3C=C(Nc4ccc(S(=O)(=O)Nc5cc(C)nc(C)n5)cc4)C(=O)c4ccccc43)cc2)nc(C)n1 [Compound 6d] | –

SMILES | IC50 [1] | IC50 (human neutrophils) | IC50 (PKC isoenzyme α; read-out: IC50 PKC α) | effect on PKA activity [1] | IC50 (human neutrophils; Homo sapiens, Neutrophil) | IC50 (PKC isoenzyme α; IC50 PKC α)
O=C1C(Nc2ccc(S(=O)(=O)NCCNc3ccc([N+](=O)[O-])cn3)cc2)=CC(=Nc2ccc(S(=O)(=O)NCCNc3ccc([N+](=O)[O-])cn3)cc2)c2ccccc21 [Compound 3ac] | > 150 µM | – | – | did not effect on PKA activity | 0.05 µM | 85 µM
